In US6689807B1, “HMG CoA reductase inhibitors for promoting angiogenesis” (priority 2000, dated 2004):

Tests used:
[1] = test system: tumor-induced blood-vessel formation; conditions: mouse model of tumor-cell induced angiogenesis; cited from earlier work
Akt = Akt serine 473 phosphorylation, western immunoblot in HUVEC; type: cell-based, human
HUVEC = experiment: Apoptosis assays in serum-free HUVEC (Annexin-V/propidium iodide, Hoechst 33342 pyknotic nuclei); type: cell-based, human; conditions: serum-free media
Protocol: HUVEC cultures were plated on chamber slides at a density of 4×10^4 cells/well. […] Parallel cultures were infected with an adenoviral construct expressing dominant-negative Akt (dnAKT) 24 hours prior to the change to serum-free media.
Data are shown as the mean ±S.E.M. (n=4-6, *p<0.05).
Fluorescence-labeled Annexin-V-FLUOS staining of HUVEC was performed according to manufacturer's instructions (Roche Molecular Biochemicals). Briefly, cells were plated on to chamber slides (Nunc) and placed in EBM for 3 hours. […] For detection of pyknotic nuclei, cells were stained with Hoechst 33342. […] Infection with adenovirus encoding dominant-negative Aktl was initiated 24 hours prior to incubation in EBM media.

eNOS = experiment: Phosphorylation of endogenous eNOS in vivo (32P-orthophosphate labelled HUVEC); type: cell-based, human; conditions: simvastatin 1 μM or VEGF 100 ng/ml, 30 min
Protocol: Alternatively, HUVEC were infected with adenovirus expressing constitutively-active Akt (myrAkt) 24 hours prior to radiolabeling and assayed for endogenous eNOS phosphorylation in the absence of Akt agonist. […] Endogenous eNOS protein was immunoprecipitated, separated by SDS-PAGE, and its phosphorylation was visualized by autoradiography. c, COS-7 cells co-transfected with eNOS (wt: wildtype eNOS, S1179A: serine 1179 mutant) and Akt (HA-Akt) expression plasmids. […] Immunoprecipitates of wild-type or mutant eNOS were examined for ^32P-phosphate incorporation by autoradiography following SDS-PAGE.
The lysate was subjected to immunoprecipitation using mouse monoclonal anti-eNOS antibody (Transduction Laboratories). Radiolabeled phosphate incorporation into each protein was visualized after SDS-PAGE (7.5%) by autoradiography.

ischemic hindlimb = experiment: Limb revascularization studies after unilateral femoral artery resection; type: in vivo; conditions: rabbit, simvastatin 0.1 mg/kg daily i.p., 40 days
Protocol: Male New Zealand white rabbits weighing 3.0 to 3.5 kg were utilized to examine the effects of Akt-signaling and simvastatin-mediated stimulation of vessel growth. For the infusion model, the left femoral artery and major side branches were excised from their proximal origin to within 2 cm of the bifurcation into the saphenous and popliteal arteries. After 10 days, to permit postoperative recovery, the distal femoral artery was re-exposed and, after temporary clamping inflow veins, 50 ml of saline, saline with 3.5×10^10 viral particles of Ad-βgal, or saline with 3.5×10^10 viral particles of Ad-myrAkt was infused via the distal femoral artery and incubated for 15 minutes. […] The remainder of the animals (n=6 per experimental group) were analyzed for limb revascularization at 31 days after femoral artery resection. […] Animals in these groups (n=6 each) were analyzed for limb revascularization 40 days after surgery. Calf blood pressure was measured in both limbs by Doppler flow meter (model 1059, Parks Medical Electronics, Aloha, Oreg.). […] Collateral arteries were evaluated by internal iliac angiography. […] Nonionic contrast media (Isovue-370, Squibb Diagnostics, New Brunswick, N.J.) was injected at a rate of 1 ml/sec and serial images of the ischemic hindlimb were recorded at a rate of 1 film/sec for 10 seconds. […] Angiographic luminal diameter (d) was determined from the angiograms. […]

[2] = test system: bovine aortic endothelial cells; experiment: NO release from endothelial cells (chemiluminescence); type: cell-based; conditions: BAEC
Protocol: Nitric oxide release was measured in the cell supernatant by chemiluminescent detection of […] (NO2^−), the stable breakdown product of NO. […] In some samples, wortmannin was added 1 hour prior to stimulation. Cell supernatants were collected, deproteinized, and refluxed in glacial acetic acid containing sodium iodide. Processed specimens were measured with a NO analyzer (Sievers).

VEGF = conditions: cultured primary endothelial cells; cited from earlier work

CC[C@H](C)C(=O)O[C@H]1C[C@@H](C)C=C2C=C[C@H](C)[C@H](CC[C@@H]3C[C@@H](O)CC(=O)O3)[C@H]21 [lovastatin]
tumor-induced blood-vessel formation [1]: no angiostatic effects

CC(O)(CCO)CC(=O)O [mevalonate, L-mevalonate]
total Akt or eNOS protein levels (Akt; HUVEC): no effect | effect on simvastatin-induced Akt phosphorylation (Akt; HUVEC pretreated 1 hour (mevalonate 200 μM, wortmannin 500 nM, LY294002 10 μM), then 1 μM simvastatin 30 minutes): blocked | effect on VEGF-induced Akt phosphorylation (Akt; HUVEC, mevalonate 200 μM, 100 ng/ml VEGF): no effect | effect on VEGF-induced endothelial cell survival (HUVEC): no effect | effect on statin-induced endothelial cell survival (HUVEC): blocked | effect on survival in the absence of statin or VEGF stimulation (HUVEC): no detectable effect

TNF-α
tumor-induced blood-vessel formation [1]: no angiostatic effects

O=c1cc(N2CCOCC2)oc2c(-c3ccccc3)cccc12 [LY294002]
total Akt or eNOS protein levels (Akt; HUVEC): no effect

VEGF
phosphate incorporation in endogenous eNOS (eNOS): increase | Akt serine 473 phosphorylation (Akt; HUVEC, simvastatin within 30 minutes, VEGF 100 ng/ml): robust activation

CCC(C)(C)C(=O)O[C@H]1C[C@@H](C)C=C2C=C[C@H](C)[C@H](CC[C@@H]3C[C@@H](O)CC(=O)O3)[C@H]21 [simvastatin]
capillary density in adductor muscle (ischemic hindlimb): 253±23 capillaries/mm^2 | Doppler flow (ischemic hindlimb; maximal flow after papaverine): 46.6 ± 3.0 mL/min | simvastatin concentration at which maximal Akt phosphorylation occurs (Akt; HUVEC, serine 473, within 30 minutes): 1.0 µM | NO release ([2]; simvastatin 1 hour): 0.48±0.07 nmol NO2^−/ml

CC[C@H](C)C(=O)O[C@H]1CCC=C2C=C[C@H](C)[C@H](CC[C@@H]3C[C@@H](O)CC(=O)O3)[C@H]21 [mevastatin]
induction of VEGF expression (VEGF): completely blocked

COC[C@H]1OC(=O)c2coc3c2[C@@]1(C)C1=C(C3=O)[C@@H]2CCC(=O)[C@@]2(C)C[C@H]1OC(C)=O [wortmannin]
total Akt or eNOS protein levels (Akt; HUVEC): no effect | simvastatin-stimulated NO release with wortmannin treatment ([2]; wortmannin added 1 hour prior to simvastatin): 0.26±0.05 nmol NO2^−/ml | basal NO synthesis with wortmannin treatment ([2]; wortmannin, no simvastatin): 0.29±0.07 nmol NO2^−/ml
